ChEMBL document CHEMBL5244233 (Eur J Med Chem, 2020)

What was measured:
[1] = target: Cannabinoid receptor 1 (Rattus norvegicus, UniProt P20272); test: Displacement of [3H]HU243 from rat brain membrane CB1 receptor assessed as inhibition constant incubated for 90 mins; assay type: cell membranes
[2] = tested on: 4T1; test: Cytotoxicity against mouse 4T1 cells assessed as inhibition of cell proliferation by MTT assay; assay type: functional, cell-based
[3] = tested on: Caco-2; test: Cytotoxicity against human Caco-2 cells assessed as reduction of cell viability incubated for 24 hrs by MTT assay; assay type: functional, cell-based; details: Caco-2, 24 h
[4] = Reduction of triglyceride level in mouse 3T3-L1 cells incubated for 3 days by AdipoRed staining based fluorescence analysis; assay type: functional; details: 3T3-L1, 72 h, time 3 day, read-out: MEC
[5] = Induction of apoptosis in gamma-irradiation induced human U87 cells by PI staining based flow cytometric analysis; assay type: functional, U-87MG ATCC; details: U-87 MG, light or radiation study, read-out: MEC
[6] = tested on: DU-145; test: Cytotoxicity against human DU-145 cells assessed as inhibition of cell growth incubated for 72 hrs by MTT assay; assay type: functional, cell-based; details: DU-145, 72 h
[7] = tested on: Rattus norvegicus; test: Protection against LiCl-induced nausea in ip dosed rat assessed as reduction in conditioned gaping; assay type: functional
[8] = target: Cannabinoid receptor 1 (Mus musculus) (UniProt P47746); test: Antagonist activity at mouse brain membrane CB1 receptor assessed as stimulation of [35S]-GTPgammaS binding by measuring apparent dissociation constant incubated for 60 mins by liquid scintillation counting method; assay type: cell membranes; details: filed as antagonist
Chain of Cannabinoid receptor 1 (Mus musculus) (P47746 whole entry): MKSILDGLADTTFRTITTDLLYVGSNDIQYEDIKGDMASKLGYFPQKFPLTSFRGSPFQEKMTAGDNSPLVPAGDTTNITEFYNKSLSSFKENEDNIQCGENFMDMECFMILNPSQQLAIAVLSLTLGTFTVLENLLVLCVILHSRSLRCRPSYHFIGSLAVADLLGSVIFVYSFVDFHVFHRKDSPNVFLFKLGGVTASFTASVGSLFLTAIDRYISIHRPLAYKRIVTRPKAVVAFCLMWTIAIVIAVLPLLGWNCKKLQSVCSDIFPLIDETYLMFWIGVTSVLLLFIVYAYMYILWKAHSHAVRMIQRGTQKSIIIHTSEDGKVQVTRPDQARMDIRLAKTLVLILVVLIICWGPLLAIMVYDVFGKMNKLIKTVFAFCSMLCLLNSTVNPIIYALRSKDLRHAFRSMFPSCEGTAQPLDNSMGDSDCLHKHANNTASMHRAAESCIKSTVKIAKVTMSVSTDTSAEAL

[9] = tested on: MDA-MB-231; test: Inhibition of cell migration in human MDA-MB-231 cells measured upto 48 hrs by transwell chamber assay; assay type: functional
[10] = species: Rattus norvegicus; test: Protection against LiCl-induced nausea in rat assessed as reduction in conditioned gaping; assay type: functional; details: read-out: MED

Chain of Cannabinoid receptor 1 (P20272 whole entry): as the sequence (P47746 whole entry) above, with D95E counted along it

## C=C(C)[C@@H]1CCC(C)C[C@H]1c1c(O)cc(CCCCC)cc1O (stereo partly specified)
[1]
  Ki: 145 nM

## C=C(C)[C@@H]1CCC(C)=C[C@H]1c1c(O)cc(CCCCC)cc1O [CANNABIDIOL]
[2]
  IC50: 1800 nM
[3]
  IC50: 3730 nM
[4]
  minimal effective concentration: ≤ 5 µM
[5]
  minimal effective concentration: ≤ 5 µM
[6]
  IC50: 5400 nM

## C=C(C)[C@@H]1CCC(C)=C[C@H]1c1c(O)cc(CCC)cc1O [CANNABIDIVARIN]
[3]
  IC50: 10100 nM
[7]
  MED: 200000 µg/kg

## C=C(C)[C@@H]1CCC(C)=C[C@H]1c1c(O)cc(CCCCC)c(C(=O)O)c1O [CANNABIDIOLIC ACID]
[8]
  Kb: 1800 nM
[9]
  MIC: ≤ 5 µM
[10]
  minimal effective dose: 2.5 µg/kg
